≈ marks a conversion by molar mass, not a printed value. Where “and” joins values, the source holds several entries; their conditions need not be identical. Equal values may be shown once. Entries after “also recorded” stand apart in the source; their conditions may differ. Read-outs that look alike come from different tables or passages of the source.
Tests used:
[1] = system: L. amazonensis arginase; conditions: cited from earlier work; for inhibition of L. amazonensis arginase activity: final concentration of 20 μM ref 13; for effect on L. amazonensis arginase (in words): phenolics without catechol group ref 15; for IC50: read-out: IC50 against L. amazonensis arginase
[2] = system: L. infantum intracellular amastigotes; assay: Intracellular anti-amastigote activity in infected RAW 264.7 macrophages; type: cell-based, Leishmania infantum; conditions: for SI AMA (selectivity index CC50/IC50, intracellular amastigotes): CC50 RAW 264.7 / IC50 intracellular amastigotes; for IC50: Leishmania infantum, RAW264.7, 48 h, infected RAW 264.7, 48 h treatment, read-out: Intracellular amastigotes IC50±SE
Protocol: (§1) The intracellular anti-amastigote activity was performed according to previously described procedures[31] with some modifications. Initially, RAW 264.7 macrophages were distributed in 96-well plates and, after adherence (incubation for 2 h), cells were washed twice with phosphate buffer saline (PBS, pH 7.2). Then, the adherent cells were infected with promastigote forms of L. infantum at the stationary phase of growth in a proportion of 10 parasites/macrophage. After 4 h of interaction at 37 °C and 5% CO2 atmosphere, free parasites were washed away with PBS and infected macrophages were incubated for another 24 h to allow differentiation into amastigotes. After this time, infected cells were treated for 48 h with increasing concentrations of the selected inhibitor. Subsequently, the culture supernatant was collected for evaluation of nitric oxide production using the Griess reaction. Cells were washed with PBS, then Schneider’s medium supplemented with 5% FBS was added and the plate was incubated at 26 °C for 72 h. The parasite survival was estimated by viability of differentiated promastigote forms recovered from the cultures using MTT (5 mg/mL). The results were expressed as the percentage of viability in relation to that obtained for the control (100%). The IC50 for amastigote forms was calculated from the dose-response curves generated from the data.

[3] = system: intracellular amastigotes of L. amazonensis; set-up: method as in PMID 24906989; conditions: cited from earlier work
[4] = system: L. infantum-infected RAW 264.7 macrophages; assay: Nitric oxide production by infected macrophages (Griess reaction); type: cell-based; conditions: for effect on NO production by infected macrophages (in words): 48 h treatment; for increase in nitrite levels in comparison to the control: 48 h
Protocol: as §1
In order to determine if ARGLi inhibitors were capable of modulating the host cell response, RAW 264.7 macrophages were infected with promastigote forms of L. infantum and treated with different concentrations of inhibitors for 48 h. After treatment, NO production was measured. […] This increase is similar to that observed for the reference drug Fungizone® (Figure 5(B)). The effect of caffeic acid on NO production may be a result of macrophage arginase inhibition and consequent oxidation of accumulated L-arginine by inducible NO synthase (iNOS).
Figure 5. Nitric oxide production by L. infantum-infected RAW 264.7 macrophages treated with different concentrations of ARGLi inhibitors. (A) Treatment with 3.1–200 μg/mL of rosmarinic acid (black), caffeic acid (light gray), and catechin (dark gray). (B) Treatment with 0.062–0.5 μg/mL of the reference drug fungizone. Control (white) represents the production of nitric oxide by infected and untreated macrophages. Nitrite concentration was measured by the Griess reaction and data represent mean ± SE of two independent experiments.

[5] = system: BALB/c mice peritoneal macrophages; conditions: cited from earlier work
[6] = system: L. amazonensis; conditions: cited from earlier work; for reduction of lesion size and parasite burden (in words): compared with reference drug Glucantime ref 42; for mice death or loss of body weight (in words): treated BALB/c mice ref 42
[7] = Cytotoxicity in RAW 264.7 macrophages (MTT); type: cell-based; conditions: mouse, read-out: RAW 264.7 CC50±SE
Protocol: RAW 264.7 macrophages were cultured in polystyrene culture flasks containing DMEM medium supplemented with 10% FBS at 37 °C and 5% CO2 atmosphere. For cytotoxic evaluation, 48 h cultured cells were harvested, washed with culture medium, and distributed into 96-well culture plates at 10^5 cells/well concentration. The cells were allowed to adhere for 2 h prior to the addition of increasing inhibitor concentrations (31–1000 µg/mL). Treated cell cultures were incubated for 48 h under the same experimental conditions. After this period, cell viability was determined by colorimetric assay using MTT solution (5 mg/mL) as an indicator. The 50% cytotoxic concentration (CC50) was calculated by analysing the dose-response curves generated from the data.

[8] = system: L. amazonensis promastigotes; conditions: cited from earlier work
[9] = system: L. infantum promastigotes; assay: Inhibition of L. infantum promastigotes growth (resazurin); type: cell-based, Leishmania infantum; conditions: for SI PRO (selectivity index CC50/IC50, promastigotes): CC50 RAW 264.7 / IC50 promastigotes; for IC50: Leishmania infantum, read-out: Promastigotes IC50±SE; for IC50 / Promastigotes IC50±SE: 96 h, 26 °C, resazurin
Protocol: The parasite growth inhibition assays were performed on 96-well microplates, where the selected ARGLi inhibitors were previously diluted (1–200 μg/mL). Subsequently, promastigote forms of L. infantum collected in late logarithmic phase (96 h) were added to microplates at the final concentration of 10^6 parasites/mL. Microplates were incubated at 26 °C for 96 h. After the incubation period, parasites viability was determined using 0.005% resazurin[30]. The 50% inhibitory concentration (IC50) was determined from the dose-response curves generated from the data.

[10] = system: ARGLi; conditions: read-out: Km for L-arginine; 1 to 50 mM L-arginine, pH 9.5, 37 °C
Protocol: ARGLi (0.2 µg/mL) was incubated with L-arginine at concentrations ranging from 1 to 50 mM in 50 mM CHES buffer (pH 9.5) at 37 °C for 5 min. Vmax and Km values were determined by the analysis of the initial velocity versus substrate concentration curve using the Michaelis–Menten equation in Graph Prism 6.

[11] = system: bovine hepatic arginase; set-up: method as in PMID 27776374; conditions: cited from earlier work; for percentage of inhibition of bovine hepatic arginase: 100 μM ref 37
[12] = system: Leishmania infantum arginase (ARGLi); assay: ARGLi inhibition by phenolic substances (urea production); type: biochemical; conditions: 100 µM substance, 50 mM L-arginine, pH 9.5, 37 °C, 5 min
[13] = system: axenic amastigote forms of L. donovani; set-up: method as in PMID 16569852; conditions: cited from earlier work

Oc1cc(O)c2c(c1)O[C@H](c1ccc(O)c(O)c1)[C@@H](O)C2 [(+)-catechin]
inhibition of L. amazonensis arginase activity [1]: more than 50%

O=C(/C=C/c1ccc(O)c(O)c1)O[C@H](Cc1ccc(O)c(O)c1)C(=O)O [Rosmarinic acid, rosmarinic acid]
SI AMA (selectivity index CC50/IC50, intracellular amastigotes) [2]: 61.79
IC50 [2]: 2.86 µg/mL and 7.9 µM
IC50 for intracellular amastigotes of L. amazonensis [3]: 1.7 ± 0.4 µg/mL
effect on NO production by infected macrophages (in words) [4]: did not affect NO production
CC50 for BALB/c mice peritoneal macrophages [5]: 33.5 ± 1.4 µg/mL
reduction of lesion size and parasite burden (in words) [6]: more effective in reducing lesion size and parasite burden
mice death or loss of body weight (in words) [6]: did not lead to mice death or significant loss of body weight
CC50 at 48 h [7]: 177 µg/mL and 491 µM
IC50 against L. amazonensis promastigote forms [8]: 0.2 ± 0.1 µg/mL (≈ 0.555 µM)
SI PRO (selectivity index CC50/IC50, promastigotes) [9]: 8.56
IC50 [9]: 20.6 µg/mL and 57.3 µM

N=C(N)NCCC[C@H](N)C(=O)O [L-arginine]
Km [10]: 5.1 ± 1.1 mM

O=c1cc(-c2ccc(O)cc2)oc2cc(O)cc(O)c12 [apigenin]
effect on L. amazonensis arginase (in words) [1]: little effect

O=c1cc(-c2ccc(O)cc2)oc2cc(O)c([C@@H]3O[C@H](CO)[C@@H](O)[C@H](O)[C@H]3O)c(O)c12 [isovitexin]
effect on L. amazonensis arginase (in words) [1]: little effect

O=C(O)/C=C/c1ccc(O)c(O)c1 [Caffeic acid, caffeic acid]
SI AMA (selectivity index CC50/IC50, intracellular amastigotes) [2]: 55.69
IC50 [2]: 3.95 µg/mL and 21.9 µM
IC50 for intracellular amastigotes of L. amazonensis [3]: 2.9 ± 0.3 µg/mL
increase in nitrite levels in comparison to the control ([4]; 100 µg/mL): 234.6%
increase in nitrite levels in comparison to the control ([4]; 200 µg/mL): 311.5%
effect on NO production by infected macrophages (in words) [4]: significantly increased nitric oxide production; also recorded: significantly increased NO production
CC50 for BALB/c mice peritoneal macrophages [5]: 32.5 ± 2.0 µg/mL
reduction of lesion size and parasite burden (in words) [6]: more effective in reducing lesion size and parasite burden
mice death or loss of body weight (in words) [6]: did not lead to mice death or significant loss of body weight
CC50 at 48 h ([7]; RAW 264.7 macrophages): 220 µg/mL and 1.22 mM
IC50 against L. amazonensis promastigote forms [8]: 0.9 ± 0.2 µg/mL (≈ 5 µM)
SI PRO (selectivity index CC50/IC50, promastigotes) [9]: 20.05
IC50 [9]: 11 µg/mL and 60.8 µM
percentage of inhibition of bovine hepatic arginase [11]: 61.3 ± 4.1%
IC50 [11]: 86.7 µM

COc1ccc(/C=C/c2cc(O)cc(O[C@@H]3O[C@H](CO)[C@@H](O)[C@H](O)[C@H]3O)c2)cc1O [Rhaponticin, rhaponticin]
percentage of inhibition of ARGLi activity [12]: more than 50%
CC50 at 48 h ([7]; RAW 264.7 macrophages): 825 µg/mL and 1.96 mM
IC50 [9]: > 400 µg/mL and > 1 mM
antileishmanial activity against promastigotes (in words) ([9]; highest concentration tested): did not inhibit promastigote growth at the highest concentration tested

O=c1c(O)c(-c2ccc(O)c(O)c2)oc2cc(O)ccc12 [fisetin]
IC50 [1]: 1.4 ± 0.3 µM

O=c1cc(-c2ccc(O)cc2)oc2c([C@@H]3O[C@H](CO)[C@@H](O)[C@H](O)[C@H]3O)c(O)cc(O)c12 [vitexin]
effect on L. amazonensis arginase (in words) [1]: little effect

O=c1cc(-c2ccc(O)c(O)c2)oc2cc(O)c([C@@H]3O[C@H](CO)[C@@H](O)[C@H](O)[C@H]3O)c(O)c12 [isoorientin]
IC50 [1]: 9 ± 1 µM

Oc1cc(O)c2c(c1)O[C@H](c1ccc(O)c(O)c1)[C@H](O)C2 [(−)-epicatechin]
inhibition of L. amazonensis arginase activity [1]: more than 50%

O=c1c(O[C@@H]2O[C@H](CO)[C@@H](O)[C@H](O)[C@H]2O)c(-c2ccc(O)c(O)c2)oc2cc(O)cc(O)c12 [isoquercitrin]
inhibition of L. amazonensis arginase activity [1]: more than 50%

COc1cc(-c2oc3cc(O)cc(O)c3c(=O)c2O)ccc1O [Isorhamnetin, isorhamnetin]
IC50 axenic amastigote forms of L. donovani [13]: 3.8 µg/mL
CC50 at 48 h [7]: > 1000 µg/mL and > 3 mM
Promastigotes IC50±SE [9]: 258.7 ± 9.50 µg/mL
IC50 [9]: 263 µg/mL and 818 µM

O=C(/C=C/c1ccc(O)c(O)c1)O[C@@H]1C[C@](O)(C(=O)O)C[C@@H](O)[C@H]1O [Chlorogenic acid, chlorogenic acid]
inhibition of L. amazonensis arginase activity [1]: more than 50%

O=c1c(O)c(-c2ccc(O)c(O)c2)oc2cc(O)cc(O)c12 [Quercetin, quercetin, reference compound]
IC50 against L. donovani [13]: 1 µg/mL (≈ 3.31 µM)
percentage of inhibition of ARGLi activity [12]: 67.05 ± 10.36%
IC50 [1]: 4.3 µM
percentage of inhibition of bovine hepatic arginase [11]: 64.4 ± 2.5%
IC50 [11]: 31.2 µM

O=c1cc(-c2ccc(O)c(O)c2)oc2cc(O)cc(O)c12 [luteolin]
IC50 [1]: 9 ± 1 µM

COc1cc(O)c2c(=O)c(O)c(-c3ccc(O)c(O)c3)oc2c1 [Rhamnetin, rhamnetin]
IC50 axenic amastigote forms of L. donovani [13]: 4.6 µg/mL
percentage of inhibition of ARGLi activity [12]: ~56%
percentage of inhibition of ARGLi activity ([12]; listed as rhamnetin): more than 50%
CC50 at 48 h ([7]; RAW 264.7 macrophages): > 1000 µg/mL and > 3 mM
Promastigotes IC50±SE [9]: 263.2 ± 3.87 µg/mL
IC50 [9]: 259 µg/mL and 832 µM

O=c1c(O)c(-c2ccc(O)cc2)oc2cc(O)cc(O)c12 [kaempferol, reference compound]
IC50 against L. donovani [13]: 2.9 µg/mL (≈ 10.1 µM)
IC50 [1]: 50 µM

O=c1c(O)c(-c2ccccc2)oc2cc(O)cc(O)c12 [galangin]
IC50 [1]: 100 µM

O=c1cc(-c2ccc(O)c(O)c2)oc2c([C@@H]3O[C@H](CO)[C@@H](O)[C@H](O)[C@H]3O)c(O)cc(O)c12 [orientin]
IC50 [1]: 16 ± 2 µM
